Source: PubChem BioAssay (NCI)
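A five-concentration, 48-hour dose response in 96-well plates underlies each endpoint, interpolated linearly between surrounding concentrations. GI50 marks 50% less growth. The concentration for full growth arrest is given as TGI.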

Key:
Experiment in all cases: NCI anticancer screen, dose series, 48 h
MALME-3M melanoma = tested on: MALME-3M melanoma
SF-539 CNS = tested on: SF-539 CNS
SK-OV-3 ovarian = tested on: SK-OV-3 ovarian
SF-268 CNS = tested on: SF-268 CNS
UACC-257 melanoma = tested on: UACC-257 melanoma
MCF7 breast = tested on: MCF7 breast
SK-MEL-2 melanoma = tested on: SK-MEL-2 melanoma
OVCAR-3 ovarian = tested on: OVCAR-3 ovarian
HT29 colon = tested on: HT29 colon
K-562 leukemia = tested on: K-562 leukemia
SR leukemia = tested on: SR leukemia
786-0 renal = tested on: 786-0 renal
KM12 colon = tested on: KM12 colon
HOP-92 NSCLC = tested on: HOP-92 NSCLC
HCT-116 colon = tested on: HCT-116 colon
HS 578T breast = tested on: HS 578T breast
UACC-62 melanoma = tested on: UACC-62 melanoma
A549 NSCLC = tested on: A549 NSCLC
MDA-MB-231 breast = tested on: MDA-MB-231 breast
HCC-2998 colon = tested on: HCC-2998 colon
HOP-62 NSCLC = tested on: HOP-62 NSCLC
SNB-19 CNS = tested on: SNB-19 CNS
MDA-MB-435 = tested on: MDA-MB-435
HL-60(TB) leukemia = tested on: HL-60(TB) leukemia
NCI-H522 lung = tested on: NCI-H522 lung
PC-3 prostate = tested on: PC-3 prostate
NCI-H460 lung = tested on: NCI-H460 lung
NCI/ADR-RES ovarian = tested on: NCI/ADR-RES ovarian
ACHN renal = tested on: ACHN renal
SNB-75 CNS = tested on: SNB-75 CNS
SN12C renal = tested on: SN12C renal
EKVX NSCLC = tested on: EKVX NSCLC
CAKI-1 renal = tested on: CAKI-1 renal
RPMI-8226 leukemia = tested on: RPMI-8226 leukemia
T-47D breast = tested on: T-47D breast
NCI-H23 lung = tested on: NCI-H23 lung
UO-31 renal = tested on: UO-31 renal
BT-549 breast = tested on: BT-549 breast
MOLT-4 leukemia = tested on: MOLT-4 leukemia
SK-MEL-28 melanoma = tested on: SK-MEL-28 melanoma
IGROV1 ovarian = tested on: IGROV1 ovarian
OVCAR-5 ovarian = tested on: OVCAR-5 ovarian
SK-MEL-5 melanoma = tested on: SK-MEL-5 melanoma
OVCAR-8 ovarian = tested on: OVCAR-8 ovarian
NCI-H226 lung = tested on: NCI-H226 lung
TK-10 renal = tested on: TK-10 renal
DU-145 prostate = tested on: DU-145 prostate
M14 melanoma = tested on: M14 melanoma
A498 renal = tested on: A498 renal
CCRF-CEM leukemia = tested on: CCRF-CEM leukemia
OVCAR-4 ovarian = tested on: OVCAR-4 ovarian
U251 CNS = tested on: U251 CNS
COLO 205 colon = tested on: COLO 205 colon

Q: Which results are given for `C#C[C@]1(O)CC[C@H]2[C@@H]3CC=C4c5sc(Nc6cc(OC)ccc6OC)nc5CC[C@]4(C)[C@H]3CC[C@@]21C`?
A: GI50 (MALME-3M melanoma): 1.69 µM; TGI (MALME-3M melanoma): 8.76 µM; GI50 (SF-539 CNS): 0.449 µM; TGI (SF-539 CNS): 1.68 µM; GI50 (SK-OV-3 ovarian): 1.08 µM; TGI (SK-OV-3 ovarian): 4.37 µM; GI50 (SF-268 CNS): 3.55 µM; TGI (SF-268 CNS): 33 µM; GI50 (UACC-257 melanoma): 1.95 µM; TGI (UACC-257 melanoma): 9.18 µM; GI50 (MCF7 breast): 0.454 µM; TGI (MCF7 breast): 1.74 µM; GI50 (SK-MEL-2 melanoma): 2.28 µM; TGI (SK-MEL-2 melanoma): 42.1 µM; GI50 (OVCAR-3 ovarian): 2.39 µM; TGI (OVCAR-3 ovarian): 9.14 µM; GI50 (HT29 colon): 1.8 µM; TGI (HT29 colon): > 100 µM; GI50 (K-562 leukemia): 0.553 µM; TGI (K-562 leukemia): > 100 µM; GI50 (SR leukemia): 0.306 µM; TGI (SR leukemia): 24.8 µM; GI50 (786-0 renal): 0.392 µM; TGI (786-0 renal): 5.08 µM; GI50 (KM12 colon): 2.33 µM; TGI (KM12 colon): 11 µM; GI50 (HOP-92 NSCLC): 4.66 µM; TGI (HOP-92 NSCLC): 74.7 µM; GI50 (HCT-116 colon): 1.12 µM; TGI (HCT-116 colon): 2.77 µM; GI50 (HS 578T breast): 0.202 µM; TGI (HS 578T breast): 0.597 µM; GI50 (UACC-62 melanoma): 1.56 µM; TGI (UACC-62 melanoma): 9.02 µM; GI50 (A549 NSCLC): 3.1 µM; TGI (A549 NSCLC): 95.7 µM; GI50 (MDA-MB-231 breast): 2.36 µM; TGI (MDA-MB-231 breast): > 100 µM; GI50 (HCC-2998 colon): 4.11 µM; TGI (HCC-2998 colon): 23.2 µM; GI50 (HOP-62 NSCLC): 1.96 µM; TGI (HOP-62 NSCLC): 47.9 µM; GI50 (SNB-19 CNS): 3.63 µM; TGI (SNB-19 CNS): 24.3 µM; GI50 (MDA-MB-435): 2.79 µM; TGI (MDA-MB-435): 19.2 µM; GI50 (HL-60(TB) leukemia): 0.646 µM; TGI (HL-60(TB) leukemia): 4.07 µM; GI50 (NCI-H522 lung): 3.9 µM; TGI (NCI-H522 lung): 29.8 µM; GI50 (PC-3 prostate): 0.627 µM; TGI (PC-3 prostate): 30 µM; GI50 (NCI-H460 lung): 2.16 µM; TGI (NCI-H460 lung): 15.1 µM; GI50 (NCI/ADR-RES ovarian): 3.11 µM; TGI (NCI/ADR-RES ovarian): > 100 µM; GI50 (ACHN renal): 1.9 µM; TGI (ACHN renal): 16.5 µM; GI50 (SNB-75 CNS): 0.386 µM; TGI (SNB-75 CNS): 13.7 µM; GI50 (SN12C renal): 3.9 µM; TGI (SN12C renal): 32.7 µM; GI50 (EKVX NSCLC): 2.86 µM; TGI (EKVX NSCLC): 42.5 µM; GI50 (CAKI-1 renal): 1.11 µM; TGI (CAKI-1 renal): 4.68 µM; GI50 (RPMI-8226 leukemia): 0.193 µM; TGI (RPMI-8226 leukemia): 0.694 µM; GI50 (T-47D breast): 3.04 µM; TGI (T-47D breast): > 100 µM; GI50 (NCI-H23 lung): 2.49 µM; TGI (NCI-H23 lung): 28.3 µM; GI50 (UO-31 renal): 1.41 µM; TGI (UO-31 renal): 12.9 µM; GI50 (BT-549 breast): 0.61 µM; TGI (BT-549 breast): 7.03 µM; GI50 (MOLT-4 leukemia): 0.367 µM; TGI (MOLT-4 leukemia): 16.2 µM; GI50 (SK-MEL-28 melanoma): 0.406 µM; TGI (SK-MEL-28 melanoma): 5.32 µM; GI50 (IGROV1 ovarian): 2.93 µM; TGI (IGROV1 ovarian): 25 µM; GI50 (OVCAR-5 ovarian): 4.14 µM; TGI (OVCAR-5 ovarian): 25.7 µM; GI50 (SK-MEL-5 melanoma): 2.3 µM; TGI (SK-MEL-5 melanoma): 5.58 µM; GI50 (OVCAR-8 ovarian): 2.94 µM; TGI (OVCAR-8 ovarian): > 100 µM; GI50 (NCI-H226 lung): 3.04 µM; TGI (NCI-H226 lung): 20.9 µM; GI50 (TK-10 renal): 4.15 µM; TGI (TK-10 renal): 27.5 µM; GI50 (DU-145 prostate): 1.91 µM; TGI (DU-145 prostate): 7.47 µM; GI50 (M14 melanoma): 1.04 µM; TGI (M14 melanoma): 4.08 µM; GI50 (A498 renal): 0.429 µM; TGI (A498 renal): 4.62 µM; GI50 (CCRF-CEM leukemia): 0.619 µM; TGI (CCRF-CEM leukemia): > 100 µM; GI50 (OVCAR-4 ovarian): 4.46 µM; TGI (OVCAR-4 ovarian): > 100 µM; GI50 (U251 CNS): 0.643 µM; TGI (U251 CNS): 13.3 µM; GI50 (COLO 205 colon): 2.43 µM; TGI (COLO 205 colon): 7.83 µM
